Laboratory results from patent US6057119A, “Crystal structure and mutants of interleukin-1β converting enzyme” (Vertex Pharmaceuticals, Incorporated, priority 1995, dated 2000).

Target: T1, human interleukin-1β converting enzyme (ICE), wild type, autoprocessed p20/p10 from p30 precursor (residues Asn 120 to His 404 of p45), SEQ ID No: 1 (Homo sapiens, UniProt P29466)
T1 construct: the concomitant appearance of the p20 and p10 subunits, was monitored by SDS-PAGE, evidence that autocatalytic processing of the enzyme had occurred; made in house
T1 sequence (P29466 120-297): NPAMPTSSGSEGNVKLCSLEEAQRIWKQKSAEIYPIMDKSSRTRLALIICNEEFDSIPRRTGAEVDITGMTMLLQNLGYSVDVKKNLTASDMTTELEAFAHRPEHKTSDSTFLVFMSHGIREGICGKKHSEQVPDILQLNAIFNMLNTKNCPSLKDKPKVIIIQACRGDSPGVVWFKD
T1 sequence (P29466 317-404): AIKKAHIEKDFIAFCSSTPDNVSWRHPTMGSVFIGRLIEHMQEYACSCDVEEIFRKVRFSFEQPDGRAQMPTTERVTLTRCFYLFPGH
Assay: Inhibition of autoprocessed ICE by tetrapeptide aldehyde inhibitor (activity assayed by hydrolysis of Succinyl-Tyr-Val-Ala-Asp-p-nitroanilide)
Type: biochemical
Conditions: 2× molar excess of inhibitor over enzyme
Description: The protein was concentrated to 3-5 mg/ml by ultrafiltration at 4° C., followed by incubation at room temperature. The disappearance of the p30 precursor, and the concomitant appearance of the p20 and p10 subunits, was monitored by SDS-PAGE, evidence that autocatalytic processing of the enzyme had occurred. ICE enzymatic activity was assayed by hydrolysis of a Succinyl-Tyr-Val-Ala-Asp-p-nitroanilide substrate at 37° C. and correlated closely with conversion to subunits.
The protein-inhibitor complex sample was concentrated and fractionated by size-exclusion chromatography, in final preparation for crystallization experiments.

CC(=O)N[C@@H](Cc1ccc(O)cc1)C(=O)N[C@H](C(=O)N[C@@H](C)C(=O)N[C@H](C=O)CC(=O)O)C(C)C [acetyl-Tyr-Vol-Ala-Asp-H]
inhibition of autoprocessed ICE: inhibited fully
